pIC50: −log10 of the molar value.
Experiments:
[1] = target: T1, native human Bradykinin B1 receptor (Homo sapiens, UniProt P46663); assay: Calcium flux Assay (FLIPR) with human fibroblasts expressing Bradykinin B1 receptor (hB1 IMR-90); assay type: cell-based; settings: IMR-90 human fibroblasts expressing native Bradykinin B1 receptor
T1 construct: which express native human Bradykinin B1 receptor after induction with human IL-10; Coriell Institute; host or cells: IMR-90 human foetal lung fibroblasts, cytokine-induced
T1 sequence (P46663 1-353): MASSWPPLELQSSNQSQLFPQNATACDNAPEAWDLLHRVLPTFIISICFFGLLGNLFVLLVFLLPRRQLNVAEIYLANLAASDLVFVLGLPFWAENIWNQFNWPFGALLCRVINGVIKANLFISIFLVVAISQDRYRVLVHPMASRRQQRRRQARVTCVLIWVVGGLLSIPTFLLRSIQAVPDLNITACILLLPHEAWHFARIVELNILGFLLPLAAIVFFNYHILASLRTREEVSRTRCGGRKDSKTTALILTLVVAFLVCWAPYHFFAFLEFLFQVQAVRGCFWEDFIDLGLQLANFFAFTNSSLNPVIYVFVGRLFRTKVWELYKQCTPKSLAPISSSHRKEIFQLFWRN
Summary of the method: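 IMR-90 human foetal lung fibroblasts induced with 0.35 ng/mL […] for 3 h, Fluo-4/AM-loaded, preincubated with compound (8 concentrations, triplicate) for 30 min at 28 °C, then challenged with Lys-(Des-Arg)-bradykinin at EC90. Ca2+ fluorescence was read at 538 nm; full inhibition set by 20 µM Lys-(Des-Arg-Leu)-bradykinin; IC50 derived.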

IL-6 secretion = assay: Inhibitory activity on Bradykinin B1 agonist-induced secretion of IL-6 in human IMR-90 cells; assay type: cell-based; settings: 30 min compound, stimulated with 0.1 μM Lys-[Des-Arg9]Bradykinin and 0.1 μM Sar-[D-Phe8]-des-Arg9-Bradykinin for 5 hours
Description: Inhibitory activity on Bradykinin B1 agonist-induced secretion of IL-6 and IL-8 in human IMR-90 cells
The effect of the compound examples on secretion of the cytokine IL-6 and IL-8 has been investigated in the human foetal lung fibroblast IMR-90 cell line. Here the induction of the cytokine secretion was induced by the Bradykinin B1 agonists Lys-[Des-Arg9]Bradykinin (CAS 71800-36-7, Tocris Bioscience) and Sar-[D-Phe8]-des-Arg9-Bradykinin (CAS 126959-88-4, Tocris Bioscience) leading to the activation of the Bradykinin B1-driven signalling pathway. This effect is indicative for a strong anti-inflammatory mode of action in kinin driven inflammation.
IMR-90 cells were cultured in Eagle's Minimum Essential Medium (EMEM) containing 2 mM L-glutamine, 1 g/L glucose, 1.5 g/L NaHCO3, 1 mM sodium pyruvate and non-essential amino acids (ATCC, 30-2003™) supplemented with 10% FBS (Biochrom, S0615) and 50 U/mL Penicillin, 50 μg/mL Streptomycin (PAA, P11-010). The assay was performed in EMEM and a cell density of […] IMR-90 cells/96-well. The compound examples have been serial diluted in 100% DMSO and evaluated at 8 different concentrations within the range of 3 nM and 10 μM and a final DMSO concentration of 0.4%. The IMR-90 cells have been incubated with the respective concentration of the compound for 30 min. The enhanced secretion of IL-6 and IL-8 was induced by the stimulation of these cells with 0.1 μM Lys-[Des-Arg9]Bradykinin (Tocris, catalogue no. 3225) and 0.1 μM Sar-[D-Phe8]-des-Arg9-Bradykinin (Tocris, catalogue no. 3230) for 5 hours at 37° C. and 5% C02. Further, cells have been treated with Lys-[Des-Arg9]Bradykinin and Sar-[D-Phe8]-des-Arg9-Bradykinin as neutral control and with 0.1% DMSO as inhibitor control. The amount of IL-6 and IL-8 in the supernatant was determined using the Human Prolnflammatory Panel II (4-Plex) (MSD, K15025B) according to manufacturer's instruction. Briefly, supernatants were added onto assay plates and incubated at room temperature for 1-2 h with vigorous shaking at 600 rpm. Detection antibodies were then added onto the supernatants and incubated at room temperature for an additional 1-2 h with vigorous shaking at 600 rpm. Plates were washed three times with phosphate-buffered saline (PBS; 137 mM NaCl, 2.7 mM KCl, 6.5 mM Na2HPO4, 1.7 mM KH2P04) containing 0.05% Tween-20 (Bio-Rad, 161-0781) and electrochemiluminescence detected using the MSD Sector Imager 6000 plate reader. The cell viability was measured using the CellTiter-Glo Luminescent Assay (Promega, G7571) following the manufacturers protocol. Briefly, the CellTiter-Glo Reagent was diluted with PBS (1:1) and added directly to cells. After incubation and shaking for 10 minutes luminescent signal was measured which is proportional to the amount of ATP present.
The effect of the compound on the amount of secreted cytokine has been calculated as 100/(measured cytokine concentration of neutral control-measured cytokine concentration of inhibitor control)*(measured cytokine concentration of compound dose-measured cytokine concentration of inhibitor control). IC50 values are determined using 4-parameter-fit.
The compound examples were tested in triplicates per plate and the inhibitory activity was determined as the relation between neutral and inhibitor control in percent. IC50 values were calculated using the 4-parameter logistic model.

SMILES	pIC50 [1]	pIC50 (IL-6 secretion)
COc1ccc(-c2ccc(NC(=O)C3(c4cccc(Cl)c4)CC3)cc2-c2nnn[nH]2)cc1OC [Example 1, 1-(3-Chlorophenyl)-N-[3′,4′-dimethoxy-2-(1H-tetrazol-5-yl)biphenyl-4-yl]cyclopropanecarboxamide]	7.85	6.65
CCOc1ccc(-c2ccc(NC(=O)C3(c4cccc(Cl)c4)CC3)cc2-c2nnn[nH]2)cn1 [Example 253, 1-(3-Chlorophenyl)-N-[4-(6-ethoxypyridin-3-yl)-3-(1H-tetrazol-5-yl)phenyl]cyclopropanecarboxamide]	7.83	7.24
